Results taken from patent US7456187B2, “Furanopyrimidine compounds as potassium ion channel inhibitors” (Xention Limited, priority 2004, dated 2008).

Legend:
human Kv1.5 = biological target: T1, human Kv1.5 (Homo sapiens, UniProt P22460); experiment: Kv1.5 Autopatch Electrophysiology (whole cell patch-clamp); assay type: cell-based; conditions: compound at 1 μM; cells stably transfected with human Kv1.5; room temperature (22-24° C.); voltage step to 0 mV for 1000 ms from -80 mV, total charge
T1 construct: expressed in transfected cells
Description: Cells stably transfected with cDNA for human Kv1.5 (in pEF6::VA-His-TOPO) were grown in Dulbecco's Modified Eagle media (DMEM) alpha supplemented with 10% Fetal Calf Serum (FCS), 20 μl/ml penicillin (5000 U/ml) streptomycin (5000 μg/ml), 10 μl/ml [100×] glutamine, and blasticidin (7.5 μg/ml).
The external bathing solution contained (in mM): 150 NaCl, 10 KCl, […], 3 MgCl2, 1 CaCl2, 10 HEPES, pH 7.4. Patch pipettes were filled with an electrode solution of composition (in mM): 160 KCl, 0.5 MgCl2, 10 HEPES, 1 EGTA, pH 7.4 with KOH.
Compounds were dissolved in DMSO (100%) and made up in the external bather at a concentration of 1 μM. All experiments were conducted at room temperature (22-24° C.).
A cell suspension (10 ml), with a density of 100,000 cells/ml, was aliquoted into a 15 ml centrifuge tube and transferred to an incubator (37° C., 5% CO2) for approximately one hour before use. Following 60 min incubation, a tube was taken and centrifuged at 1000 rpm for 4 mins at room temperature. 9.5 ml supernatant was thene discarded, leaving a cell pellet at the bottom of the tube. The pellet was then resuspended using 100 μl of cold (4° C.), filtered (0.22 μm), 0.2% BSA/bather solution (0.02 g BSA/10 ml bather). The bottom of the tube was manually agitated gently until the solution became cloudy with cells. The 100 μl cell resuspension solution was then stored on the bench at 4° C. (using a Peltier-based temperature control device) until used.
A length of capillary glass (1B150F-4, WPI) was dipped into the cell suspension solution, such that ˜3 cm column of fluid was taken up by capillary action. An Ag/AgCl wire was dropped into the non-dipped end of the capillary also. The outside of the solution-filled end of the capillary was then dried and the capillary was loaded into the AutoPatch™.
Borosilicate glass patch pipettes (from 1.5 mm OD, thin-walled filamented, GC150-TF capillary glass, Harvard) were pulled using a DMZ pipette puller (Zeitz Instruments), and were back-filled using the internal pipette solution, being careful that no bubbles remain at the tip or in the body of the pipette. Patch pipettes typically had resistances of 2.3-3.5 MΩ. Once filled, the pipette tip and a proportion of the shaft (˜15 mm) were dipped into Sigmacote (Sigma). The recording pipette was then loaded into the AutoPatch™. Automated patch-clamping was initiated by the operator, but thereafter AutoPatch.exe continued the experiment providing that pre-set conditions and criteria were satisfied.
Whole cell patch-clamp recordings were made using the AutoPatch™ rig, which incorporated an EPC9 amplifier (HEKA, Germany) under control of Pulse software (v8.54, HEKA, Germany), a motion controller with 2 translators (Newport, UK), valve controller (VF1) and a c-level suction device all at room temperature (22-24° C.). This equipment was completely under the control of AutoPatch.exe and operator intervention was only made when there was a requirement to refill the drug reservoirs or to prevent the loss of a cell due to a technical error. Cells with an Rseries greater than 18MΩ were discounted from the experiment.
Qualification stages prior to perfusion and drug application ensured that the observed current met the criteria for the experiment. Only those cells with an IK>[…] were used for experiments. Cells were continuously perfused with external solution at a flow rate of 1.8-2 ml/minute. […] Online analysis of the hKv1.5 current during the application of compounds was performed by the AutoPatch™ software.
Electrophysiology voltage-step protocols and analysis of data was performed as follows. Data was sampled at 5 kHz, and filtered with a −3 dB bandwidth of 2.5 kHz. Cells were held at a voltage of −80 mV. Currents were evoked to a voltage step for 1000 ms in duration at 0 mV every 5 s. Currents were analysed using Pulsefit software (v8.54, HEKA, Germany), with the total charge measured during the whole of the voltage step. […]

T1 sequence (P22460 whole entry): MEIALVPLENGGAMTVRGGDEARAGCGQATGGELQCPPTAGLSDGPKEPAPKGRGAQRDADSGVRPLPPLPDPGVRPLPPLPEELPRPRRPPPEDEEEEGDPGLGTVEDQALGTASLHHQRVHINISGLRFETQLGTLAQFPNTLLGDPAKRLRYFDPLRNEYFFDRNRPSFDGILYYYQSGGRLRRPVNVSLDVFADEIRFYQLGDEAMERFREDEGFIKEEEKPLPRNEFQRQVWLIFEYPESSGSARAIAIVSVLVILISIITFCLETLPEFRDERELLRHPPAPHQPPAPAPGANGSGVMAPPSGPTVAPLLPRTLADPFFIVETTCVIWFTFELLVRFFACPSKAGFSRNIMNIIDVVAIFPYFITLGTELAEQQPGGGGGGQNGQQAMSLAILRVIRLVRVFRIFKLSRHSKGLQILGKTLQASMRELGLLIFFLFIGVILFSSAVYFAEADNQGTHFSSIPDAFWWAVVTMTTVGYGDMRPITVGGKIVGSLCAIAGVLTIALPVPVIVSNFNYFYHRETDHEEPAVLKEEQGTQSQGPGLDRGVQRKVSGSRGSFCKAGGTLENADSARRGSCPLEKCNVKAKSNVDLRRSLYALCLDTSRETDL

inhibition at 1 µM (human Kv1.5) [%]	melting point [°C]	% Inhibition @1 (μM) (human Kv1.5) [%]	SMILES
39.8	162 to 164		Fc1ccc(-c2coc3ncnc(NCc4ccccn4)c23)cc1 [Example 21, 5-(4-Fluorophenyl)-N-(pyridin-2-ylmethyl)furo[2,3-d]pyrimidin-4-amine]
		54.00	c1ccc(-c2coc3ncnc(NCc4ccccn4)c23)cc1 [Example 22, 5-Phenyl-N-(pyridin-2′-ylmethyl)furo[2,3-d]pyrimidin-4-amine]
		83.80	Clc1ccc(-c2coc3ncnc(NCc4ccccn4)c23)cc1 [Example 23, 5-(4-Chlorophenyl)-N-(pyridin-2′-ylmethyl)furo[2,3-d]pyrimidin-4-amine]
		15.81	COc1ccc(-c2coc3ncnc(NCc4ccccn4)c23)cc1OC [Example 24, 5-(3,4-Dimethoxyphenyl)-N-(pyridin-2′-ylmethyl)furo[2,3-d]pyrimidin-4-amine]
		65.17	c1ccc(CNc2ncnc3occ(-c4ccc5c(c4)OCO5)c23)nc1 [Example 25, 5-(1,3-Benzodioxol-5′-yl)-N-(pyridin-2′-ylmethyl)furo[2,3-d]pyrimidin-4-amine]
		83.00	Cc1oc2ncnc(NCc3ccccn3)c2c1-c1ccccc1 [Example 26, 6-Methyl-5-phenyl-N-(pyridin-2′-ylmethyl)furo[2,3-d]pyrimidin-4-amine]
99	96 to 98		COCCNc1nc(NCc2ccccn2)c2c(-c3ccccc3)coc2n1 [Example 41, N^2-(2-Methoxyethyl)-5-phenyl-N^4-pyridin-2-ylmethyl-furo[2,3-d]pyrimidine-2,4-diamine]
		99.00	c1ccc(-c2coc3nc(N4CCOCC4)nc(NCc4ccccn4)c23)cc1 [Example 42, (2-Morpholin-4-yl-5-phenyl-furo[2,3-d]pyrimidin-4-yl)-puridin-2-ylmethyl-amine]
82			OCCN(CCO)c1nc(NCc2ccccn2)c2c(-c3ccccc3)coc2n1 [Example 43, 2-((2-Hydroxyethyl)-{5-Phenyl-4-[(pyridine-2-ylmethyl)-amino]-furo[2,3-d]pyrimidin-2-yl}-amino)-ethanol]
75			OCC(CO)Nc1nc(NCc2ccccn2)c2c(-c3ccccc3)coc2n1 [Example 44, 2-{5-Phenyl-4-[(pyridin-2-ylmethyl)-amino]furo[2,3-d]pyrimidin-2-ylamino}-propane-1,3-diol]
42			OCCN(CCO)c1nc(NCc2ccccn2)c2c(-c3ccc(F)cc3)coc2n1 [Example 45, 2-((2-Hydroxyethyl)-{5-(4-fluorophenyl)-4-[(pyridine-2-ylmethyl)-amino]-furo[2,3-d]pyrimidin-2-yl}-amino)-ethanol]
99	108 to 110		CN(C)c1nc(NCc2ccccn2)c2c(-c3ccccc3)coc2n1 [Example 46, N^2,N^2-Dimethyl-5-phenyl-N^4-pyridin-2-ylmethyl-furo[2,3-d]pyrimidine-2,4-diamine]
98	52 to 54		Cc1cccc(CNc2nc(N(C)C)nc3occ(-c4ccccc4)c23)n1 [Example 47, N^2,N^2-Dimethyl-N^4-(6-methyl-pyridin-2-ylmethyl)-5-phenyl-furo[2,3-d]pyrimidine-2,4-diamine]
98			CN(C)c1nc(NCc2ccco2)c2c(-c3ccccc3)coc2n1 [Example 48, N^4-Furan-2-ylmethyl-N^2,N^2-dimethyl-5-phenyl-furo[2,3-d]pyrimidine-2,4-diamine]
75			Cc1oc2nc(N(C)C)nc(NCc3ccccn3)c2c1-c1ccccc1 [Example 49, 6,N^2,N^2-Trimethyl-5-phenyl-N4-pyridin-2-ylmethyl-furo[2,3-d]pyrimidine-2,4-diamine]
32	107 to 109		Cc1oc2nc(N(C)C)nc(NCc3ccccn3)c2c1-c1ccc(F)cc1 [Example 50, 5-(4-Fluorophenyl)-6,N^2,N^2-trimethyl-N^4-pyridin-2-ylmethyl-furo[2,3-d]pyrimidine-2,4-diamine]
99	97 to 99		COCCOc1nc(NCc2ccccn2)c2c(-c3ccccc3)coc2n1 [Example 51, [2-(2-Methoxyethoxy)-5-phenyl-furo[2,3-d]pyrimidin-4-yl]-pyridin-2-ylmethylamine]
